{
  "source": "paper PMC11574045",
  "about": "“A cofactor-induced repressive type of transcription factor condensation can be induced by synthetic peptides to suppress tumorigenesis” (The EMBO Journal, 2024)",
  "key": {"TEAD4": {"molecular_target": "T1, TEAD4 (Homo sapiens, UniProt Q15561)", "T1 construct": "His; made in house; host or cells: Escherichia coli BL21(DE3)", "T1 sequence (Q15561 whole entry)": "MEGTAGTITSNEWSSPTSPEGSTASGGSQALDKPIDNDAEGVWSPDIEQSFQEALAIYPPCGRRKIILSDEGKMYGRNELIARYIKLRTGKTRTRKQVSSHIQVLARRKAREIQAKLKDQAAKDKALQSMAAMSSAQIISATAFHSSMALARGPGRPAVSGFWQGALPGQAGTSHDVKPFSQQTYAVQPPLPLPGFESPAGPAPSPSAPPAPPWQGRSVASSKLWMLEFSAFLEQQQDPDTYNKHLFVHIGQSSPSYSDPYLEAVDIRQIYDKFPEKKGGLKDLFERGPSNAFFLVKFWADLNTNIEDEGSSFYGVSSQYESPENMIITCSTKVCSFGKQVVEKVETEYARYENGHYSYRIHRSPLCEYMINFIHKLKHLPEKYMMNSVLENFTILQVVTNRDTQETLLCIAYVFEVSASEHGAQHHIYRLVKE", "assay": "FRAP of TEAD4 droplets formed from purified protein", "format": "biochemical", "settings": "purified TEAD4 protein treated with FAM-GLUP", "description": "(A) Schematic of the strategy of the initial version of a linker peptide termed “glup”. […] The two TEAD4 molecules are colored cyan and blue, respectively. […] Monomer, dimer, and oligomer TEAD4 bands are labeled. (D) Schematic illustration of an optimized version of the linker peptide (referred to as GLUP). […] (F) Comparison of glup with GLUP. MW, molecular weight. […] The quantification graph represents the data collected from 10 images (n = 10). Data shown as means ± SD represent the representative results from two independent experiments. Significance was tested using one-way ANOVA, followed by the Tukey’s post-hoc test. *p < 0.05; ****p < 0.0001. NaCl (+), 20 mM; NaCl (++), 150 mM; NaCl (+++), 500 mM. Scale bar, 10 μm. […] For each photobleached spot, the fluorescence recovery curve was traced. The graph represents the data collected from 5 droplets (n = 5). t1/2: fluorescence recovery time; Rf: mobile fraction. […] The quantification graph represents the data collected from 9 cells (n = 9). […] The data were analyzed using one-way ANOVA, followed by the Tukey’s post-hoc test. n.s., no significance; ****p < 0.0001. […] Three images were gradually taken during pre-bleach, bleaching pulses, followed by fluorescence recovery as indicated on the graph (left). […] White circles indicated the bleaching condensates. t1/2: fluorescence recovery time; Rf: mobile fraction. […]"}, "[1]": {"test_system": "GFP-TEAD4 condensates in HEK293FT cells", "assay": "FRAP of TEAD4 condensates in live cells", "format": "cell-based", "settings": "GLUP-treated HEK293FT cells", "protocol": "For FRAP analysis, cells were seeded at a confluency of ~30% on a 35-mm glass-bottomed dish (Cellvis D35C4-20-1-N). Live cell imaging was carried out using a Leica SP8 confocal microscope (Leica, Germany) with a 63× oil immersion objective lens. A defined region with a diameter of ~1 μm was photobleached by the equipped laser at ~90% power intensity. Fluorescence intensities of the region were recorded by carrying out time-lapse live imaging with a 1.29 s interval and further quantified using Fiji ImageJ software."}, "HGC-27 cells": {"test_system": "HGC-27 cells", "assay": "RNA sequencing", "format": "cell-based, human", "settings": "GLUP-treated HGC-27 cells", "protocol": "For RNA sequencing, HGC-27 cells in 6-well plates were treated with GLUP peptide at 10 μg/ml for 48 h. The stocking buffer (20 mM HEPES pH 7.5, and 100 mM NaCl) was used as a negative control. Total RNA was extracted from at least two biological replicates. Extracted RNA was monitored for its quality using a 2100 Expert Bioanalyzer (Agilent) before being sent for library preparation and RNA sequencing (Majorbio). The RNA sequencing data were analyzed on a free online Majorbio I-Sanger Cloud Platform (www.majorbio.com)."}, "Pharmacokinetics assay": {"assay": "Pharmacokinetics assay", "format": "in vivo, mouse", "settings": "10 mg/kg", "protocol": "Blood samples were obtained at 0, 0.17, 0.33, 0.5, 0.67, 0.83, 1, 2, 4, 6, 8, 10, 12, and 24 h after intraperitoneally injected administration of FAM-GLUP. These blood samples were then allowed to coagulate at room temperature for 4 h, and then were subjected to centrifugation at 3000 × g at 4 °C for 10 min in order to separate the plasma. The plasma samples were analyzed using an Ultra Performance Liquid Chromatography system (UPLC, Waters, Milford, MA). Pharmacokinetic parameters were calculated using Phoenix^TM WinNonlin® software (version 6.1.0.173; Pharsight Corp., Mountain View, CA)."}, "[2]": {"test_system": "TEAD4^high or TEAD4^low GC patient-derived xenografts", "assay": "Patient-derived xenograft (PDX) model", "format": "in vivo, mouse", "design": "Tumor area, TEAD4High PDX / Tumor area, TEAD4Low PDX: unit not given beside the values", "protocol": "To establish PDX models, cell suspensions from GC patients were prepared as they were for PDOs. Subcutaneous implantation was performed on one flank of 5-week-old SCID mice weighing from 16 to 18 g and that were anesthetized using a isoflurane/oxygen mixture. Tumor growth was monitored by taking biweekly measurements of the implantation sites. Serial engraftments of each tumor were performed when the tumor reached a volume of ~500 mm^3. Subsequently, PDX tumors were enzymatically disassociated to form a single-cell suspension. To reduce murine cell populations, the cell suspension was then subjected to magnetic mouse cell depletion using a MACS mouse cell depletion kit (Miltenyi Biotech, Bergisch Gladbach, Germany). Following the cell depletion, all established PDX cell lines were maintained at steady rates of proliferation in RPMI 1640 medium. Additionally, a small piece of tumor tissue was obtained using a scalpel and fixed in 10% formalin-buffered saline for histological analysis."}, "CTGF": {"test_system": "CTGF", "assay": "RNA-scope of CTGF in tumor tissues", "format": "in vivo, mouse", "settings": "tumors of GLUP-treated mice", "protocol": "RNA-scope was performed according to manufacturer’s protocols (RNAscope Red Detection Kit, ACDbio, 322360). Briefly, the tumor sections (3 μm thickness) were obtained from MNU-generated gastric tumor tissues. The sections were deparaffinized, retrieved, and then hybridized with Ctgf probes following the manufacturer’s instructions (ACD, Hayward, CA, USA). Subsequently, the signal of hybridized probes was further visualized using RED dye-labeled probes. Finally, the samples were redyed, this time with hematoxylin, and mounted with VectaMount Permanent Mounting Medium (Vector Laboratories, Burlingame, CA, USA), and photographed using a Nikon Upright Fluorescence Microscope (Nikon, Japan). Positive and negative control probes were used for each experiment to help derive conclusions from the data."}, "[3]": {"settings": "5 mg/kg GLUP daily for 15 d, individual mice, n = 8 (source data Fig 8I)"}},
  "note": "Values joined by “and” are separate entries in the source; they are usually repeats but may differ in a detail not shown here. Equal entries are not always repeated. Ends that are not written are not given here.",
  "data": [
    {"substance": "RRVCVHFHFSLSLR-NH2 (C-terminus assumed) [glup]", "values": [
      {"measurement": "mobile fraction (FRAP)", "setting": "TEAD4", "result": "about 86%"},
      {"measurement": "mobile fraction (FRAP)", "setting": "[1]", "result": "about 62%"},
      {"measurement": "GSEA of TEAD signature genes", "setting": "HGC-27 cells", "result": "negative enrichment of TEAD signature genes"},
      {"measurement": "half-life", "setting": "Pharmacokinetics assay; mouse peripheral blood/plasma, FAM-GLUP intraperitoneal, sampling 0–24 h, UPLC, WinNonlin", "result": "over 4 h"},
      {"measurement": "plasma levels of GLUP, max", "setting": "Pharmacokinetics assay; mouse, as read by Referee #1 from Supp. Fig. 6K of the submitted version", "result": "around 0.15 µg/ml"},
      {"measurement": "Tumor area, TEAD4High PDX", "setting": "[2]; [3]", "result": "0 and 0.0472 and 0.0501 and 0.0406 and 0.03159 and 0.05051"},
      {"measurement": "Tumor area, TEAD4Low PDX", "setting": "[2]; [3]", "result": "0.09232 and 0.08466 and 0.08264 and 0.05322 and 0.1278 and 0.08635 and 0.1028 (2×)"},
      {"measurement": "Tumor response, TEAD4^high PDX", "setting": "[2]; GLUP (i.v.) for 2 weeks", "result": "significantly regressed"},
      {"measurement": "Tumor response, TEAD4^low PDX", "setting": "[2]; GLUP (i.v.) for 2 weeks", "result": "did not respond to the GLUP treatment"},
      {"measurement": "Expression of TEAD4 target gene CTGF in tumor tissue", "setting": "CTGF", "result": "sharply decreased in a dose-dependent manner"}
    ]}
  ]
}
